In ChEMBL document CHEMBL5252658, “Conversion of a Cardiac Muscle Modulator from an Inhibitor to an Activator” (ACS Med Chem Lett, 2023):
Activity calls are given as the source filed them. No cut-off for these calls is given here.

Key:
[1] = Binding affinity to CTNI-CTNC N-domain chimera (unknown origin) assessed as dissociation constant; set-up: species or system Homo sapiens
[2] = organism: Bos taurus; experiment: Modulation of bovine cardiac myofibrils ATPase activity at 50 uM relative to control; details: filed as modulator
[3] = organism: Rattus norvegicus; experiment: Cardiovascular activity in rat ventricular trabeculae assessed as increase in calcium sensitivity of force development at 50 uM; format: functional

Kd [1] [µM]	Activity [2] [%]	Structure (SMILES)	Activity [3]
200	30	NCCCCCCNS(=O)(=O)c1cccc(-c2ccc(F)cc2F)c1	Active
470		NCCCCCCNS(=O)(=O)c1cccc2c(Cl)cccc12	
120	30	NCCCCCCCNS(=O)(=O)c1cccc(-c2ccc(F)cc2F)c1	
60	30	NCCCCCCCCNS(=O)(=O)c1cccc(-c2ccc(F)cc2F)c1	
